Experimental data from patent publication US5843902A, “Methods for treating prostate cancer with LHRH antagonists” (Praecis Pharmaceuticals Incorporated, priority 1996, dated 1998).
Square brackets hold non-standard residues; d marks the D form. Peptide text beside a SMILES is read from it. dPhe(4-Cl) = N[C@H](Cc1ccc(Cl)cc1)C(=O)O; d2Nal = N[C@H](Cc1ccc2ccccc2c1)C(=O)O; Lys(iPr) = CC(C)NCCCC[C@H](N)C(=O)O; NMeY = CN[C@@H](Cc1ccc(O)cc1)C(=O)O; d3Pal = N[C@H](Cc1cccnc1)C(=O)O

Columns and labels:
male cynomolgus monkeys = test: Plasma testosterone in male cynomolgus monkeys given PPI-149 by osmotic pump, then depot leuprolide; format: in vivo; settings: cynomolgus monkey
Experimental: In a second series of experiments, male cynomolgus monkeys were administered the LHRH antagonist PPI-149 via a subcutaneous continuous osmotic minipump (Alzet pump; Alza, Palo Alto, Calif.) at a dose of 0, 30, 100 or 300 μg/kg/day for a period of 28 days. On day 28, pumps were removed and monkeys were administered a single intramuscular dose of the depot, sustained-release (one-month) formulation of Luprong, equivalent to 0.16 mg/kg. This dose of leuprolide is 1.6 times that used in the treatment of prostate cancer in humans (0.1 mg/kg) and 3.2 times that used in the treatment of endometriosis (0.05 mg/kg).

adult male rats = test: Plasma testosterone in adult male rats given PPI-149 by osmotic pump, then leuprolide; format: in vivo, rat; settings: for prevention of leuprolide-induced testosterone surge / suppression of plasma testosterone levels: rat
Experimental: In a first series of experiments, adult male rats were first administered an LHRH antagonist having the structure:
(referred to herein as PPI-149). PPI-149 was administered via a subcutaneous continuous osmotic minipump (e.g., the Alzet pump, commercially available from Alza, Palo Alto, Calif.) at a dose of 15 μg/kg/day or 50 μg/kg/day. PPI-149 administration continued for a total of 15-28 days according to several different protocols. A second pump releasing leuprolide (trade name: Lupron®) at 1.8 μg/kg/day was implanted such that there was an overlap of 0, 1 or 7 days with the previously-implanted pump releasing PPI-149.
In the experiment shown in FIG. 1, PPI-149 (at 15 μg/kg/day or 50 μg/kg/day) was administered by osmotic pump for 28 days and then this pump was removed and a second pump administering leuprolide (at 1.8 μg/kg/day) was implanted such that there was no overlap between the antagonist and agonist treatment. Plasma testosterone levels (in ng/ml) were measured during the prolonged administration of PPI-149 alone and following replacement of the PPI-149 pump with the leuprolide pump.
In the experiment shown in FIG. 2, PPI-149 (at 50 μg/kg/day) was administered by osmotic pump for 15 days and then a second pump administering leuprolide (at 1.8 μg/kg/day) was implanted such that there was one day of overlap between the antagonist and agonist treatment (i.e., the first PPI-149-releasing pump was removed one day after implantation of the second leuprolide-releasing pump). Plasma testosterone levels were measured during the prolonged administration of PPI-149 alone and following removal of the PPI-149 pump when leuprolide alone was administered.
In the experiment shown in FIG. 3, PPI-149 (at 15 μg/kg/day or 50 μg/kg/day) was administered by osmotic pump for 28 days and then a second pump administering leuprolide (at 1.8 μg/kg/day) was implanted such that there was one day of overlap between the antagonist and agonist treatment (i.e., the first PPI-149-releasing pump was removed one day after implantation of the second leuprolide-releasing pump). Plasma testosterone levels were measured during the prolonged administration of PPI-149 alone and following removal of the PPI-149 pump when leuprolide alone was administered.
In the experiment shown in FIG. 4, PPI-149 (at 15 μg/kg/day or 50 μg/kg/day) was administered by osmotic pump for 28 days and then a second pump administering leuprolide (at 1.8 μg/kg/day) was implanted such that there were seven days of overlap between the antagonist and agonist treatment (i e., the first PPI-149-releasing pump was removed seven days after implantation of the second leuprolide-releasing pump). Plasma testosterone levels were measured during the prolonged administration of PPI-149 alone and following removal of the PPI-149 pump when leuprolide alone was administered.

[1] = PPI-149 50 μg/kg/day osmotic pump 15 days, one day overlap with leuprolide 1.8 μg/kg/day (FIG. 2)
[2] = PPI-149 50 μg/kg/day osmotic pump 28 days, one day overlap with leuprolide 1.8 μg/kg/day (FIG. 3)
[3] = PPI-149 50 μg/kg/day osmotic pump 28 days, seven days overlap with leuprolide 1.8 μg/kg/day (FIG. 4)
[4] = PPI-149 50 μg/kg/day s.c. osmotic pump 28 days, no overlap with leuprolide 1.8 μg/kg/day (FIG. 1)

CC(=O)N[C@H](Cc1ccc2ccccc2c1)C(=O)N[C@H](Cc1ccc(Cl)cc1)C(=O)N[C@H](Cc1cccnc1)C(=O)N[C@@H](CO)C(=O)N(C)[C@@H](Cc1ccc(O)cc1)C(=O)N[C@H](CC(N)=O)C(=O)N[C@@H](CC(C)C)C(=O)N[C@@H](CCCCNC(C)C)C(=O)N1CCC[C@H]1C(=O)N[C@H](C)C(N)=O [PPI-149, Ac-D-Nal^1,4-Cl-D-Phe^2, D-Pal^3, N-Me-Tyr^5, D-Asn^6, Lys(iPr)^8, D-Ala^10 -LHRH] (Ac-[d2Nal][dPhe(4-Cl)][d3Pal]S[NMeY][dN]L[Lys(iPr)]P[dA]-NH2)
blockade of testosterone surge from depot Lupron (male cynomolgus monkeys; PPI-149 100 μg/kg/day 28 days, pump removed, single i.m. one-month depot leuprolide equivalent to 0.16 mg/kg on day 28 (FIG. 5)): complete blockade of the testosterone surge
medical castration (plasma testosterone) (male cynomolgus monkeys; PPI-149 100 μg/kg/day s.c. osmotic pump 28 days (FIG. 5)): rapid, complete medical castration within the first two days of treatment
prevention of testosterone surge induced by LHRH agonist (summary of FIGS. 1-4) (adult male rats; adult male rats, PPI-149 50 μg/kg/day, 0, 1 or 7 days): can prevent the testosterone surge induced by LHRH agonist administration
prevention of leuprolide-induced testosterone surge (adult male rats; [1]): prevented the leuprolide-induced testosterone surge
suppression of plasma testosterone levels (adult male rats; [1]): suppressed plasma testosterone levels to castrate levels
prevention of leuprolide-induced testosterone surge (adult male rats; [2]): prevented the leuprolide-induced testosterone surge
suppression of plasma testosterone levels (adult male rats; [2]): suppressed plasma testosterone levels to castrate levels
prevention of leuprolide-induced testosterone surge (adult male rats; [3]): prevented the leuprolide-induced testosterone surge
suppression of plasma testosterone levels (adult male rats; [3]): suppressed plasma testosterone levels to castrate levels
prevention of leuprolide-induced testosterone surge (adult male rats; [4]): prevented the leuprolide-induced testosterone surge
suppression of plasma testosterone levels (adult male rats; [4]): suppressed plasma testosterone levels to castrate levels
